Experimental data from patent publication US20240116985A1, “STAPLED PEPTIDES AND METHODS THEREOF” (priority 2020, published 2024).
≈ marks a conversion by molar mass, not a printed value. Read-outs that look alike come from different tables or passages of the source.

Assays:
[1] = target: T1, full-length beta-Catenin (Uniprot ID P35222) (Homo sapiens, UniProt P35222); test: Fluorescence polarization IC50 (beta-catenin / 5FAM-TCF4 10-53 competition); format: binding; details: fluorescence polarization
T1 construct: 10 nM full-length beta-Catenin (Uniprot ID P35222)
T1 sequence (P35222 1-781): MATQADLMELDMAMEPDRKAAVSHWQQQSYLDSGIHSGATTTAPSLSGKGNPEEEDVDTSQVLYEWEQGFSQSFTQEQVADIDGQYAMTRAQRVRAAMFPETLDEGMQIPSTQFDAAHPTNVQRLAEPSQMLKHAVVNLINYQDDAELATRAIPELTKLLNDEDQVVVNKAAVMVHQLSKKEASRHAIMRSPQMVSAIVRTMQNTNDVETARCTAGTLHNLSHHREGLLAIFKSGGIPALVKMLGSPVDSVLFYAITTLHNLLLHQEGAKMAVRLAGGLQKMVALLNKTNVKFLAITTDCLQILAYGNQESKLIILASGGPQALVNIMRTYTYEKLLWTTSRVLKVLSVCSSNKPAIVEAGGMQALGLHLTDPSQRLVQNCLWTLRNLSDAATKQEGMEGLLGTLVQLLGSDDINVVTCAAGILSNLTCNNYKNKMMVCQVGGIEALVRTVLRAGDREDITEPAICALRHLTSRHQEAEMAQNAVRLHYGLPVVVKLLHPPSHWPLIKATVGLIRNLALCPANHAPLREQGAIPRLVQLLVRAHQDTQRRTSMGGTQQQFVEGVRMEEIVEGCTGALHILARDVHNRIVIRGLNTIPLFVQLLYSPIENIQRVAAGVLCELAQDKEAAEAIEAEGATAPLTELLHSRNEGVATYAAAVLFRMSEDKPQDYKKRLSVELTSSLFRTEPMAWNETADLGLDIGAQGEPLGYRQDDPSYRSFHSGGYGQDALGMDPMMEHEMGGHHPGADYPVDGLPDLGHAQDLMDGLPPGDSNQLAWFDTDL

[2] = target: T2, beta-catenin/TCF4 engagement (Homo sapiens, UniProt P35222); test: Nano-BRET target engagement assay (B-cat-Halo & TCF4-Luc in HEK293 cells); format: cell-based; details: absolute IC50; read-out: NanoBRET Abs IC50
T2 construct: expressed in transfected cells; host or cells: HEK293
T2 sequence (P35222 1-781): T1 sequence (P35222 1-781)

Solubility in PBS = format: physicochemical
Summary of the method: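 HPLC quantitation of peptide remaining in the PBS supernatant after ultracentrifugation, referenced to a 50 μM solution in DMSO.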

SMILES	IC50 ([1]; read-out: beta-Catenin FP IC50) [µM]	IC50 [2] [µM]	Solubility (Solubility in PBS; Solubility (uM)) [µM]	Solubility (Solubility in PBS) [µM]	IC50 ([1]; beta-catenin, read-out: FP EC50) [µM]
CC(=O)N1CCC[C@]12CC=CCCCC1(CCCC=CCCCOC(=O)N3CC[C@@](C(=O)N[C@@H](Cc4ccsc4)C(=O)N[C@@H](Cc4csc5ccccc45)C(=O)N[C@@H](CCC(N)=O)C(N)=O)(C3)NC(=O)[C@H](CC(C)C)NC(=O)[C@H](Cc3ccccc3)NC(=O)[C@H](C)NC(=O)C(C)(C)NC(=O)[C@H](CC(=O)O)NC(=O)[C@H](CC(=O)O)NC1=O)NC(=O)[C@H](CC(C)(C)C)NC(=O)[C@H](CC(=O)O)NC2=O (stereo partly drawn) [I-1177, Ac-PL3-Asp-Npg-B5-Asp-Asp-Aib-Ala-Phe-Leu-PyrS2-3Thi-BztA-Gln-NH2]	0.025	4.3	35 (≈ 67.6 µg/mL)	–	–
CC(=O)N1CCC[C@]12CC=CCCCC1(CCCC=CCCCOC(=O)N3CC[C@@](C(=O)N[C@@H](Cc4ccccc4)C(=O)N[C@@H](Cc4csc5ccccc45)C(=O)N[C@@H](CO)C(N)=O)(C3)NC(=O)[C@H]([C@@H](C)O)NC(=O)[C@H](Cc3cccc4ccccc34)NC(=O)[C@H](C)NC(=O)[C@H](C)NC(=O)[C@H]([C@@H](C)O)NC(=O)[C@H](CC(=O)O)NC1=O)NC(=O)[C@H](CC(C)(C)C)NC(=O)[C@H](CC(=O)O)NC2=O (stereo partly drawn) [I-1266, Ac-PL3-Asp-Npg-B5-Asp-Thr-Ala-Ala-1NapA-Thr-PyrS2-Phe-BztA-Ser-NH2]	0.755	> 20	–	10 (≈ 18.9 µg/mL)	–
CC(=O)N1CCC[C@]12CC=CCCCC1(CCCC=CCCCOC(=O)N3CC[C@@](C(=O)N[C@@H](Cc4ccsc4)C(=O)N[C@@H](Cc4csc5ccccc45)C(=O)N[C@H](CO)[C@@H](C)O)(C3)NC(=O)[C@H](Cc3ccccc3C(F)(F)F)NC(=O)[C@H](Cc3ccccc3)NC(=O)[C@H](C)NC(=O)[C@H](C)NC(=O)[C@H](CC(=O)O)NC(=O)[C@H](CC(=O)O)NC1=O)NC(=O)[C@H](CC(C)(C)C)NC(=O)[C@H](CC(=O)O)NC2=O (stereo partly drawn) [I-1370, Ac-PL3-Asp-Npg-B5-Asp-Asp-Ala-Ala-Phe-2F3MeF-PyrS2-3Thi-BztA-Thro1]	0.018	10	–	10 (≈ 19.8 µg/mL)	–
CC(=O)N1CCC[C@]12CC=CCCCC1(CCCC=CCCCOC(=O)N3CC[C@@](C(=O)N[C@@H](Cc4ccccc4Cl)C(=O)N[C@@H](Cc4csc5ccccc45)C(=O)N[C@@H](CC(C)C)C(N)=O)(C3)NC(=O)[C@H](CCCCNC(C)C)NC(=O)[C@H](Cc3ccccc3)NC(=O)[C@H](C)NC(=O)[C@H](C)NC(=O)[C@H](CC(=O)O)NC(=O)[C@H](CC(=O)O)NC1=O)NC(=O)[C@H](CC(C)(C)C)NC(=O)[C@H](CC(=O)O)NC2=O (stereo partly drawn) [I-1280, Ac-PL3-Asp-Npg-B5-Asp-Asp-Ala-Ala-Phe-iPrLys-PyrS2-2C1F-BztA-Leu-NH2]	0.022	24.7	–	10 (≈ 19.9 µg/mL)	–
CC(=O)N1CCC[C@]12CC=CCCCC1(CCCC=CCCCOC(=O)N3CC[C@@](C(=O)N[C@@H](Cc4ccccc4)C(=O)N[C@@H](Cc4csc5ccccc45)C(=O)N[C@@H](CO)C(N)=O)(C3)NC(=O)[C@H]([C@@H](C)O)NC(=O)[C@H](Cc3ccc4ccccc4c3)NC(=O)[C@H](C)NC(=O)[C@H](C)NC(=O)[C@H]([C@@H](C)O)NC(=O)[C@H](CC(=O)O)NC1=O)NC(=O)[C@H](CC(C)(C)C)NC(=O)[C@H](CC(=O)O)NC2=O (stereo partly drawn) [I-1267, Ac-PL3-Asp-Npg-B5-Asp-Thr-Ala-Ala-2NapA-Thr-PyrS2-Phe-BztA-Ser-NH2]	0.181	36.9	–	10 (≈ 18.9 µg/mL)	–
CC(=O)N1CCC[C@]12CC=CCCCC1(CCCC=CCCCOC(=O)N3CC[C@@](C(=O)N[C@@H](Cc4ccsc4)C(=O)N[C@@H](Cc4csc5ccccc45)C(=O)N[C@H](CO)[C@@H](C)O)(C3)NC(=O)[C@H](CC(C)C)NC(=O)[C@H](Cc3ccccc3)NC(=O)[C@H](C)NC(=O)[C@H](C)NC(=O)[C@H](CC(=O)O)NC(=O)[C@H](CC(=O)O)NC1=O)NC(=O)[C@H](CC(C)(C)C)NC(=O)[C@H](CC(N)=O)NC2=O (stereo partly drawn) [I-1304, Ac-PL3-Asn-Npg-B5-Asp-Asp-Ala-Ala-Phe-Leu-PyrS2-3Thi-BztA-Thro1]	0.031	33.6	–	10 (≈ 18.8 µg/mL)	–
CC(=O)N1CCC[C@]12CC=CCCCC1(CCCC=CCCCOC(=O)N3CC[C@@](C(=O)N[C@@H](Cc4ccsc4)C(=O)N[C@@H](Cc4csc5ccccc45)C(=O)N[C@@H](CCC(N)=O)C(N)=O)(C3)NC(=O)[C@H](Cc3ccc(C(F)(F)F)cc3)NC(=O)[C@H](Cc3ccccc3)NC(=O)[C@H](C)NC(=O)[C@H](C)NC(=O)[C@H](CC(=O)O)NC(=O)[C@H](CC(=O)O)NC1=O)NC(=O)[C@H](CC(C)(C)C)NC(=O)[C@H](CC(=O)O)NC2=O (stereo partly drawn) [I-1365, Ac-PL3-Asp-Npg-B5-Asp-Asp-Ala-Ala-Phe-4F3MeF-PyrS2-3Thi-BztA-Gln-NH2]	0.009	9.7	22 (≈ 44.4 µg/mL)	–	–
CC(=O)N1CCC[C@H]1C(=O)N[C@@H](CC(=O)O)C(=O)N[C@@H](CC(C)(C)C)C(=O)N[C@]1(C)CCCC=CCCCOC(=O)N2CC[C@@](C(=O)N[C@@H](Cc3ccsc3)C(=O)N[C@@H](Cc3csc4ccccc34)C(=O)N[C@@H](CCC(N)=O)C(N)=O)(C2)NC(=O)[C@H](CC(C)C)NC(=O)[C@H](Cc2ccccc2)NC(=O)[C@H](C)NC(=O)[C@H](C)NC(=O)[C@H](CC(=O)O)NC(=O)[C@H](CC(=O)O)NC1=O [I-1181, Ac-Pro-Asp-Npg-R5-Asp-Asp-Ala-Ala-Phe-Leu-PyrS2-3Thi-BztA-Gln-NH2]	0.297	> 20	–	50 (≈ 92.6 µg/mL)	0.226
CC(=O)N1CCC[C@]12CC=CCCCC1(CCCC=CCCCOC(=O)N3CC[C@@](C(=O)N[C@@H](Cc4ccsc4)C(=O)N[C@@H](Cc4csc5ccccc45)C(=O)N[C@@H](CCC(N)=O)C(N)=O)(C3)NC(=O)[C@H]([C@@H](C)O)NC(=O)[C@H](Cc3ccccc3)NC(=O)[C@H](C)NC(=O)[C@H](C)NC(=O)[C@H]([C@@H](C)O)NC(=O)[C@H](CC(=O)O)NC1=O)NC(=O)[C@H](CC1CCCCC1)NC(=O)[C@H](CC(=O)O)NC2=O (stereo partly drawn) [I-1173, Ac-PL3-Asp-Cha-B5-Asp-Thr-Ala-Ala-Phe-Thr-PyrS2-3Thi-BztA-Gln-NH2]	0.012	17.2	–	10 (≈ 19.2 µg/mL)	–
CC(=O)N1CCC[C@]12CC=CCCCC1(CCCC=CCCCOC(=O)N3CC[C@@](C(=O)N[C@@H](Cc4ccccc4Cl)C(=O)N[C@@H](Cc4csc5ccccc45)C(=O)N[C@@H](CO)C(N)=O)(C3)NC(=O)[C@H]([C@@H](C)O)NC(=O)[C@H](Cc3ccccc3)NC(=O)[C@H](C)NC(=O)[C@H](CC(C)C)NC(=O)[C@H](CC(=O)O)NC(=O)[C@H](CC(=O)O)NC1=O)NC(=O)[C@H](CC1CCCCC1)NC(=O)[C@H](CC(=O)O)NC2=O (stereo partly drawn) [I-1150, Ac-PL3-Asp-Cha-B5-Asp-Asp-Leu-Ala-Phe-Thr-PyrS2-2C1F-BztA-Ser-NH2]	0.012	21.4	18 (≈ 35.3 µg/mL)	–	–
CC(=O)N1CCC[C@]12CC=CCCCC1(CCCC=CCCCOC(=O)N3CC[C@@](C(=O)N[C@@H](Cc4cccc5ccccc45)C(=O)N[C@@H](Cc4csc5ccccc45)C(=O)N[C@@H](CO)C(N)=O)(C3)NC(=O)[C@H]([C@@H](C)O)NC(=O)[C@H](Cc3ccccc3)NC(=O)[C@H](C)NC(=O)[C@H](C)NC(=O)[C@H]([C@@H](C)O)NC(=O)[C@H](CC(=O)O)NC1=O)NC(=O)[C@H](CC(C)(C)C)NC(=O)[C@H](CC(=O)O)NC2=O (stereo partly drawn) [I-1269, Ac-PL3-Asp-Npg-B5-Asp-Thr-Ala-Ala-Phe-Thr-PyrS2-1NapA-BztA-Ser-NH2]	0.173	17.6	–	10 (≈ 18.9 µg/mL)	–
CC(=O)N1CCC[C@]12CC=CCCCC1(CCCC=CCCCOC(=O)N3CC[C@@](C(=O)N[C@@H](Cc4ccccc4Cl)C(=O)N[C@@H](Cc4csc5ccccc45)C(=O)N[C@H](C(N)=O)[C@@H](C)O)(C3)NC(=O)[C@H]([C@@H](C)O)NC(=O)[C@H](Cc3ccccc3)NC(=O)[C@H](C)NC(=O)[C@H](CCCCNC(C)C)NC(=O)[C@H](CC(=O)O)NC(=O)[C@H](CC(=O)O)NC1=O)NC(=O)[C@H](CC(C)(C)C)NC(=O)[C@H](CC(=O)O)NC2=O (stereo partly drawn) [I-1273, Ac-PL3-Asp-Npg-B5-Asp-Asp-iPrLys-Ala-Phe-Thr-PyrS2-2C1F-BztA-Thr-NH2]	0.009	> 20	32 (≈ 64.2 µg/mL)	–	–
CC(=O)N1CCC[C@]12CC=CCCCC1(CCCC=CCCCOC(=O)N3CC[C@@](C(=O)N[C@@H](Cc4ccccc4Cl)C(=O)N[C@@H](Cc4csc5ccccc45)C(=O)N[C@H](C(N)=O)[C@@H](C)O)(C3)NC(=O)[C@H](CCCCNC(C)C)NC(=O)[C@H](Cc3ccccc3)NC(=O)[C@H](C)NC(=O)[C@H](C)NC(=O)[C@H](CC(=O)O)NC(=O)[C@H](CC(=O)O)NC1=O)NC(=O)[C@H](CC(C)(C)C)NC(=O)[C@H](CC(=O)O)NC2=O (stereo partly drawn) [I-1279, Ac-PL3-Asp-Npg-B5-Asp-Asp-Ala-Ala-Phe-iPrLys-PyrS2-2C1F-BztA-Thr-NH2]	0.012	22.9	14 (≈ 27.7 µg/mL)	–	–
